Measurements: PubChem BioAssay (NCI)
Several values for one entry are separate records, joined by “and”; a condition that tells them apart may be missing. Identical values can stand only once.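 1) Cells in 96-well plates. 2) Compound, 48 h, 5 concentrations. 3) Linear interpolation between surrounding doses. 4) Unreached endpoint = highest concentration. GI50 marks 50% less growth. TGI: total growth inhibition.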

Columns and labels:
Experiment in all cases: DTP human tumour cell line panel, 48 h
HCT-116 colon = tested on: HCT-116 colon
HL-60(TB) leukemia = tested on: HL-60(TB) leukemia
NCI-H226 lung = tested on: NCI-H226 lung
RPMI-8226 leukemia = tested on: RPMI-8226 leukemia
SK-MEL-28 melanoma = tested on: SK-MEL-28 melanoma
SNB-75 CNS = tested on: SNB-75 CNS
SR leukemia = tested on: SR leukemia
SW-620 colon = tested on: SW-620 colon
UACC-257 melanoma = tested on: UACC-257 melanoma
UACC-62 melanoma = tested on: UACC-62 melanoma

COc1ccc2c(CN3CCCCC3CO)cc3cc(OC)c(OC)cc3c2c1 (stereo not drawn)
TGI (HCT-116 colon): 13.7 µM | TGI (HL-60(TB) leukemia): 12.5 µM | TGI (NCI-H226 lung): 16.7 µM | TGI (RPMI-8226 leukemia): 33 µM | TGI (SK-MEL-28 melanoma): 18.6 µM | TGI (SNB-75 CNS): 22.1 µM | TGI (SR leukemia): 22.2 µM | TGI (SW-620 colon): 15.7 µM | TGI (UACC-257 melanoma): 13.7 µM | TGI (UACC-62 melanoma): 25.7 µM

CN(C)CC(C)(C)C(=O)/C=C/c1ccc(/C=C/C(=O)C(C)(C)CN(C)C)cc1
TGI (HCT-116 colon): 2.55 µM | TGI (HL-60(TB) leukemia): 4.17 µM | TGI (NCI-H226 lung): 4.93 µM | TGI (RPMI-8226 leukemia): 5.47 µM | TGI (SK-MEL-28 melanoma): 3.5 µM | TGI (SNB-75 CNS): 3.05 µM | TGI (SR leukemia): 5.45 µM | TGI (SW-620 colon): 2.17 µM | TGI (UACC-257 melanoma): 3.83 µM | TGI (UACC-62 melanoma): 3.17 µM

O=C(CP(=O)(O)O)NC(CC(=O)OCc1ccccc1)C(=O)OCc1ccccc1 (stereo not drawn)
TGI (HCT-116 colon): > 100 µM | TGI (HL-60(TB) leukemia): > 100 µM | TGI (NCI-H226 lung): > 100 µM | TGI (RPMI-8226 leukemia): > 100 µM | TGI (SK-MEL-28 melanoma): > 100 µM | TGI (SNB-75 CNS): > 100 µM | TGI (SR leukemia): > 100 µM | TGI (SW-620 colon): > 100 µM | TGI (UACC-257 melanoma): > 100 µM | TGI (UACC-62 melanoma): > 100 µM

COc1cc(/C=C2\C(=O)Nc3cc(C)c(O)cc32)cc(OC)c1OC
GI50 (HCT-116 colon): 4.07 µM | TGI (HCT-116 colon): 15.8 µM | GI50 (HL-60(TB) leukemia): 1.74 µM | TGI (HL-60(TB) leukemia): 5.84 µM | GI50 (NCI-H226 lung): 15.6 µM | TGI (NCI-H226 lung): 46.5 µM | GI50 (RPMI-8226 leukemia): 1.47 µM | TGI (RPMI-8226 leukemia): 4.41 µM | GI50 (SK-MEL-28 melanoma): 7.59 µM | TGI (SK-MEL-28 melanoma): 23 µM | GI50 (SNB-75 CNS): 3.03 µM | TGI (SNB-75 CNS): > 30 µM | GI50 (SR leukemia): 0.857 µM | TGI (SR leukemia): 5.84 µM | GI50 (SW-620 colon): 4.08 µM | TGI (SW-620 colon): 15.9 µM | GI50 (UACC-257 melanoma): 13.5 µM | TGI (UACC-257 melanoma): 42.7 µM | GI50 (UACC-62 melanoma): 3.82 µM | TGI (UACC-62 melanoma): 16.8 µM

FC(F)c1nc2ccccc2n1-c1nc(N2CCOCC2)nc(N2CCOCC2)n1
GI50 (HCT-116 colon): 0.618 µM and 0.734 µM | TGI (HCT-116 colon): > 100 µM | GI50 (HL-60(TB) leukemia): 0.153 µM and 0.351 µM | TGI (HL-60(TB) leukemia): > 100 µM | GI50 (NCI-H226 lung): 0.249 µM and 0.452 µM | GI50 (RPMI-8226 leukemia): 0.482 µM and 0.345 µM | TGI (RPMI-8226 leukemia): > 7.2 µM and 4.26 µM | GI50 (SK-MEL-28 melanoma): 0.174 µM and 0.244 µM | TGI (SK-MEL-28 melanoma): 1.87 µM and 3.79 µM | GI50 (SNB-75 CNS): 0.0257 µM and 0.0295 µM | TGI (SNB-75 CNS): 0.403 µM and 0.481 µM | GI50 (SR leukemia): 0.686 µM and 0.578 µM | TGI (SR leukemia): > 100 µM | GI50 (SW-620 colon): 0.573 µM and 1.16 µM | TGI (SW-620 colon): > 100 µM | GI50 (UACC-257 melanoma): 0.264 µM and 0.25 µM | TGI (UACC-257 melanoma): 3.09 µM and 3.64 µM | GI50 (UACC-62 melanoma): 0.0752 µM and 0.233 µM | TGI (UACC-62 melanoma): 0.86 µM and 1.94 µM

CCOC(=O)c1sc(-c2ccc(OS(=O)(=O)c3ccc(Br)s3)c(C=O)c2)nc1C
GI50 (HCT-116 colon): 1.89 µM | TGI (HCT-116 colon): 3.95 µM | GI50 (HL-60(TB) leukemia): 3.66 µM | TGI (HL-60(TB) leukemia): 19.7 µM | GI50 (NCI-H226 lung): 3.82 µM | TGI (NCI-H226 lung): 23.1 µM | GI50 (RPMI-8226 leukemia): 1.94 µM | TGI (RPMI-8226 leukemia): 5.18 µM | GI50 (SK-MEL-28 melanoma): 11.4 µM | TGI (SK-MEL-28 melanoma): 33.4 µM | GI50 (SNB-75 CNS): 1.6 µM | TGI (SNB-75 CNS): 6.7 µM | GI50 (SR leukemia): 3.14 µM | TGI (SR leukemia): > 100 µM | GI50 (SW-620 colon): 3.28 µM | TGI (SW-620 colon): 12.8 µM | GI50 (UACC-257 melanoma): 18.6 µM | TGI (UACC-257 melanoma): 64.7 µM | GI50 (UACC-62 melanoma): 2.21 µM | TGI (UACC-62 melanoma): 5.97 µM

O=C(CC(c1ccccc1)c1c(O)c2ccccc2oc1=O)c1ccccc1 (stereo not drawn)
TGI (HCT-116 colon): > 100 µM | TGI (HL-60(TB) leukemia): > 100 µM | TGI (NCI-H226 lung): > 100 µM | TGI (RPMI-8226 leukemia): > 100 µM | TGI (SK-MEL-28 melanoma): > 100 µM | TGI (SNB-75 CNS): > 100 µM | TGI (SR leukemia): > 100 µM | TGI (SW-620 colon): > 100 µM | TGI (UACC-257 melanoma): > 100 µM | TGI (UACC-62 melanoma): > 100 µM

CCCC(=O)NC1=C(Cl)C(=O)c2ccccc2C1=O
TGI (HCT-116 colon): 4.52 µM | TGI (HL-60(TB) leukemia): 0.899 µM | TGI (NCI-H226 lung): 29.9 µM | TGI (RPMI-8226 leukemia): 6.19 µM | TGI (SK-MEL-28 melanoma): 17 µM | TGI (SNB-75 CNS): 20.2 µM | TGI (SR leukemia): 6.31 µM | TGI (SW-620 colon): 6.36 µM | TGI (UACC-257 melanoma): 14 µM | TGI (UACC-62 melanoma): 10.3 µM

Nc1ccccc1C(=O)CC1OC(=O)c2ccccc21 (stereo not drawn)
TGI (HCT-116 colon): > 100 µM | TGI (HL-60(TB) leukemia): > 100 µM | TGI (NCI-H226 lung): > 100 µM | TGI (RPMI-8226 leukemia): > 100 µM | TGI (SK-MEL-28 melanoma): > 100 µM | TGI (SNB-75 CNS): > 100 µM | TGI (SR leukemia): > 100 µM | TGI (SW-620 colon): > 100 µM | TGI (UACC-257 melanoma): > 100 µM | TGI (UACC-62 melanoma): > 100 µM

CCCNNC(=O)/C=C/c1ccc(CNCCc2c(C)[nH]c3ccccc23)cc1
GI50 (HCT-116 colon): 0.00887 µM | TGI (HCT-116 colon): 0.324 µM | GI50 (HL-60(TB) leukemia): 0.0123 µM | TGI (HL-60(TB) leukemia): 3.96 µM | GI50 (NCI-H226 lung): 0.0291 µM | TGI (NCI-H226 lung): 0.131 µM | GI50 (RPMI-8226 leukemia): 0.0101 µM | TGI (RPMI-8226 leukemia): 0.337 µM | GI50 (SK-MEL-28 melanoma): 0.0253 µM | TGI (SK-MEL-28 melanoma): 0.0964 µM | GI50 (SNB-75 CNS): 0.0753 µM | TGI (SNB-75 CNS): 2.94 µM | GI50 (SR leukemia): 0.0191 µM | TGI (SR leukemia): 4.26 µM | GI50 (SW-620 colon): 0.0177 µM | TGI (SW-620 colon): 0.237 µM | GI50 (UACC-257 melanoma): 0.0323 µM | TGI (UACC-257 melanoma): 0.627 µM | GI50 (UACC-62 melanoma): 0.0237 µM | TGI (UACC-62 melanoma): 0.0744 µM

Cc1ccc(C)c2c1C(O)(C#Cc1ccccc1)c1ccccc1C2(O)C#Cc1ccccc1 (stereo not drawn)
GI50 (HCT-116 colon): 3.04 µM | TGI (HCT-116 colon): > 100 µM | GI50 (HL-60(TB) leukemia): 4.04 µM | TGI (HL-60(TB) leukemia): > 100 µM | GI50 (NCI-H226 lung): 1.9 µM | TGI (NCI-H226 lung): 9.46 µM | GI50 (RPMI-8226 leukemia): 1.83 µM | GI50 (SK-MEL-28 melanoma): 3.75 µM | TGI (SK-MEL-28 melanoma): > 88.5 µM | GI50 (SNB-75 CNS): 4.04 µM | TGI (SNB-75 CNS): > 100 µM | GI50 (SR leukemia): 2.52 µM | TGI (SR leukemia): > 100 µM | GI50 (SW-620 colon): 3.03 µM | TGI (SW-620 colon): > 100 µM | GI50 (UACC-257 melanoma): 2.54 µM | TGI (UACC-257 melanoma): 6.6 µM | GI50 (UACC-62 melanoma): 2.84 µM | TGI (UACC-62 melanoma): > 100 µM
